Experimental data published in ChEMBL document CHEMBL1201862, “PubChem BioAssay data set” (2004).
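Cultured in 96-well plates, cells were exposed to test compound for 48 hours across five concentrations. Here, GI50 denotes the concentration required for 50% inhibition of growth.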 The source made the active and inactive calls. Cut-off read from the data, not from the text of the source: active = GI50 up to about 1.1 µM and inactive = higher.

Experiments:
Assay in all cases: NCI tumour cell line growth inhibition, 48 h
MDA-MB-435 = tested on: MDA-MB-435
SF-539 = tested on: SF-539
UACC-62 = tested on: UACC-62
HOP-92 = tested on: HOP-92
SK-OV-3 = tested on: SK-OV-3
RPMI-8226 = tested on: RPMI-8226
A549 = tested on: A549
SNB-19 = tested on: SNB-19
CAKI-1 = tested on: CAKI-1
TK-10 = tested on: TK-10
Hs-578T = tested on: Hs-578T
K562 = tested on: K562
NCI/ADR-RES = tested on: NCI/ADR-RES
BT-549 = tested on: BT-549
NCI-H23 = tested on: NCI-H23
EKVX = tested on: EKVX
OVCAR-8 = tested on: OVCAR-8
SF-295 = tested on: SF-295
HCT-15 = tested on: HCT-15
SR = tested on: SR

Measured: GI50

O=C1CCC(=O)N1n1c(Cc2ccc(Cl)cc2)n[nH]c1=O
> 100 µM: HCT-15
inactive: MDA-MB-435 > 100 µM | SF-539 > 100 µM | UACC-62 > 100 µM | HOP-92 > 100 µM | SK-OV-3 > 100 µM | RPMI-8226 > 100 µM | A549 > 100 µM | SNB-19 > 100 µM | CAKI-1 > 100 µM | TK-10 > 100 µM | Hs-578T > 100 µM | K562 > 100 µM | NCI/ADR-RES > 100 µM | BT-549 > 100 µM | NCI-H23 > 100 µM | EKVX > 100 µM | OVCAR-8 > 100 µM | SF-295 > 100 µM

O=c1[nH]c2c(c(=O)[nH]1)SC(c1ccccc1)C2 (configuration not stated)
> 100 µM: HCT-15
inactive: MDA-MB-435 > 100 µM | SF-539 > 100 µM | HOP-92 > 100 µM | RPMI-8226 > 100 µM | A549 > 100 µM | SNB-19 > 100 µM | CAKI-1 > 100 µM | Hs-578T > 100 µM | K562 > 100 µM | NCI/ADR-RES > 100 µM | BT-549 > 100 µM | NCI-H23 > 100 µM | EKVX 72.1 µM | OVCAR-8 > 100 µM | SF-295 > 100 µM

CCOC(=O)C1=CN2C(=N[C@H]3CCCC[C@@H]32)NC1=O
> 100 µM: HCT-15
inactive: MDA-MB-435 > 100 µM | SF-539 > 100 µM | UACC-62 > 100 µM | HOP-92 > 100 µM | SK-OV-3 > 100 µM | RPMI-8226 > 100 µM | A549 > 100 µM | SNB-19 > 100 µM | CAKI-1 > 100 µM | TK-10 > 100 µM | Hs-578T > 100 µM | K562 > 100 µM | NCI/ADR-RES > 100 µM | BT-549 > 100 µM | NCI-H23 > 100 µM | EKVX > 100 µM | OVCAR-8 > 100 µM | SF-295 > 100 µM

CN1CCC(O)(C(C)(C)C)CC1
> 100 µM: HCT-15
inactive: MDA-MB-435 > 100 µM | UACC-62 > 100 µM | SK-OV-3 > 100 µM | SR > 100 µM | RPMI-8226 > 100 µM | A549 > 100 µM | SNB-19 > 100 µM | CAKI-1 > 100 µM | TK-10 > 100 µM | Hs-578T > 100 µM | K562 > 100 µM | NCI/ADR-RES > 100 µM | BT-549 > 100 µM | NCI-H23 > 100 µM | EKVX > 100 µM | OVCAR-8 > 100 µM | SF-295 > 100 µM

CCOC(=O)c1cc(-c2ccc(OC)cc2)c([N+](=O)[O-])n1C
> 10 µM: HCT-15
inactive: MDA-MB-435 > 10 µM | SF-539 > 10 µM | UACC-62 > 10 µM | HOP-92 > 10 µM | SR 9.1 µM | A549 > 10 µM | SNB-19 > 10 µM | Hs-578T > 10 µM | K562 6.84 µM | NCI/ADR-RES > 10 µM | BT-549 > 10 µM | NCI-H23 > 10 µM | EKVX > 10 µM | OVCAR-8 > 10 µM | SF-295 > 10 µM

Nc1nc(Cc2ccccc2)nc(Cc2ccccc2)c1-c1ccccc1
inactive: MDA-MB-435 22.9 µM | UACC-62 18 µM | HOP-92 11.5 µM | SR 20.8 µM | A549 33.9 µM | SNB-19 75.7 µM | CAKI-1 39.5 µM | TK-10 56.9 µM | Hs-578T 85.7 µM | K562 18 µM | NCI/ADR-RES 16.7 µM | BT-549 20.6 µM | NCI-H23 17.7 µM | EKVX 11.4 µM | OVCAR-8 28.7 µM | SF-295 25.6 µM
21.5 µM: HCT-15

O=C(O)CCC1NC(/C(=C/c2ccccc2O)NC(=O)c2ccccc2)OC1=O (configuration not stated)
inactive: MDA-MB-435 15.8 µM | SF-539 95.3 µM | UACC-62 > 100 µM | HOP-92 > 100 µM | SK-OV-3 44.2 µM | RPMI-8226 > 100 µM | A549 > 100 µM | SNB-19 32.5 µM | CAKI-1 > 100 µM | TK-10 56.1 µM | Hs-578T 43.8 µM | K562 > 100 µM | NCI/ADR-RES 88.5 µM | BT-549 72.6 µM | NCI-H23 > 100 µM | EKVX > 100 µM | OVCAR-8 46.8 µM | SF-295 35.4 µM
> 100 µM: HCT-15

C[C@]12CC/C(=N\OCCN3CCCCC3)C=C1CCC1C2CC[C@@]2(C)C1CC[C@]2(C)O (some centres not stated)
5 µM: HCT-15
inactive: MDA-MB-435 2.3 µM | SF-539 7.35 µM | UACC-62 9.86 µM | HOP-92 8.41 µM | SK-OV-3 16.7 µM | RPMI-8226 12.7 µM | A549 12.2 µM | SNB-19 11.9 µM | CAKI-1 6.75 µM | TK-10 12.4 µM | Hs-578T 8.61 µM | K562 5.26 µM | NCI/ADR-RES 5.27 µM | BT-549 10 µM | NCI-H23 13.4 µM | EKVX 16.2 µM | OVCAR-8 11.2 µM | SF-295 3.5 µM

COc1ccc([C@H]2C=C(c3cc(F)c(Cl)cc3Cl)N=c3s/c(=C\c4ccc(-c5ccc(Cl)cc5Cl)o4)c(=O)n32)cc1
inactive: MDA-MB-435 30.5 µM | SF-539 34.6 µM | UACC-62 25.5 µM | HOP-92 31.6 µM | SK-OV-3 21.5 µM | RPMI-8226 32.5 µM | A549 > 100 µM | SNB-19 31.9 µM | CAKI-1 80.5 µM | TK-10 12.1 µM | Hs-578T 34.8 µM | K562 38.8 µM | NCI/ADR-RES 44.5 µM | BT-549 47.2 µM | NCI-H23 38.9 µM | OVCAR-8 37.8 µM | SF-295 43.2 µM
33.8 µM: HCT-15

Nc1cc(CO)cc(Nc2c3ccccc3nc3ccccc23)c1
17.6 µM: HCT-15
inactive: MDA-MB-435 17 µM | SF-539 17.6 µM | UACC-62 17.4 µM | SK-OV-3 16 µM | SR 53 µM | RPMI-8226 29.8 µM | A549 18.2 µM | CAKI-1 17.5 µM | TK-10 16 µM | Hs-578T 18.3 µM | K562 14.2 µM | NCI/ADR-RES 17.7 µM | BT-549 14.5 µM | NCI-H23 15.9 µM | EKVX 16.8 µM | OVCAR-8 15.9 µM | SF-295 10.9 µM

O=C(O)[C@H]1CCCN1CP(=O)(O)CN1CCC[C@@H]1C(=O)O
> 100 µM: HCT-15
inactive: MDA-MB-435 > 100 µM | UACC-62 > 100 µM | HOP-92 > 100 µM | SK-OV-3 > 100 µM | A549 > 100 µM | SNB-19 > 100 µM | CAKI-1 > 100 µM | Hs-578T > 100 µM | K562 > 100 µM | NCI/ADR-RES > 100 µM | BT-549 > 100 µM | NCI-H23 > 100 µM | EKVX > 100 µM | OVCAR-8 > 100 µM | SF-295 > 100 µM

CN(C)CCCN1c2ccc3ccccc3c2Sc2cccc(Cl)c21
active: Hs-578T 0.665 µM
4.33 µM: HCT-15
inactive: MDA-MB-435 1.98 µM | SF-539 4.32 µM | UACC-62 2 µM | HOP-92 1.51 µM | SK-OV-3 11.4 µM | RPMI-8226 1.78 µM | A549 5.81 µM | SNB-19 5.87 µM | CAKI-1 5.33 µM | TK-10 2.52 µM | K562 1.73 µM | NCI/ADR-RES 5.56 µM | BT-549 15.1 µM | NCI-H23 10.6 µM | EKVX 2.38 µM | OVCAR-8 4.33 µM | SF-295 3.91 µM

c1ccc2c(c1)CCN(C1=NCCO1)C2
> 10 µM: HCT-15
inactive: MDA-MB-435 > 10 µM | SF-539 > 10 µM | UACC-62 > 10 µM | HOP-92 > 10 µM | SK-OV-3 > 10 µM | RPMI-8226 > 10 µM | A549 > 10 µM | SNB-19 > 10 µM | CAKI-1 > 10 µM | TK-10 > 10 µM | Hs-578T > 10 µM | K562 > 10 µM | NCI/ADR-RES > 10 µM | BT-549 > 10 µM | NCI-H23 > 10 µM | EKVX > 10 µM | OVCAR-8 > 10 µM | SF-295 > 10 µM

Cc1ccccc1-n1c(=O)c2ncn(C3CCCO3)c2n(-c2ccccc2C)c1=S (configuration not stated)
inactive: MDA-MB-435 > 100 µM | SF-539 > 100 µM | UACC-62 > 100 µM | HOP-92 > 100 µM | SK-OV-3 > 100 µM | RPMI-8226 > 100 µM | A549 > 100 µM | SNB-19 > 100 µM | CAKI-1 > 100 µM | TK-10 > 100 µM | Hs-578T > 100 µM | K562 > 100 µM | NCI/ADR-RES > 100 µM | BT-549 > 100 µM | NCI-H23 > 100 µM | EKVX > 100 µM | OVCAR-8 > 100 µM | SF-295 > 100 µM
> 100 µM: HCT-15

CC(=O)Nc1ccc(Nc2cc(O)nc(O)n2)cc1
inactive: MDA-MB-435 > 100 µM | SF-539 > 100 µM | HOP-92 > 100 µM | SR > 100 µM | RPMI-8226 > 100 µM | A549 > 100 µM | SNB-19 > 100 µM | TK-10 > 100 µM | Hs-578T > 100 µM | K562 > 100 µM | NCI/ADR-RES > 100 µM | BT-549 > 100 µM | EKVX > 100 µM | OVCAR-8 > 100 µM | SF-295 > 100 µM
> 100 µM: HCT-15

C=C1C(NC)CCC23CC24CCC2(C)C(C(C)=O)C(O)CC2(C)C4CCC13 (configuration not stated)
> 100 µM: HCT-15
inactive: MDA-MB-435 > 100 µM | SF-539 59 µM | UACC-62 > 100 µM | HOP-92 > 100 µM | SK-OV-3 59.7 µM | RPMI-8226 45 µM | A549 > 100 µM | SNB-19 > 100 µM | CAKI-1 > 100 µM | TK-10 > 100 µM | Hs-578T > 100 µM | K562 71.3 µM | NCI/ADR-RES > 100 µM | BT-549 64.3 µM | NCI-H23 > 100 µM | EKVX > 100 µM | OVCAR-8 > 100 µM | SF-295 28.4 µM
